This data set deals with GENE-TOX genotoxicity assays, various organisms and cells. The data set is described as follows: GENE-TOX mutagenicity studies. Conditions: for call: Assay Type: In vivo carcinogenicity studies.
The mark [1] stands for this setting: Species/Cell Type: Drosophila melanogaster, Assay Type: Sex-linked recessive lethal gene mutation, Assay Code: SRL+, Evaluation Type: Evaluation A (Pre-1980).
Where [2] appears, read: Species/Cell Type: Nonhuman, Assay Type: Sister-chromatid exchange (SCE) in vitro, Assay Code: SC2+, Evaluation Type: Evaluation B (Post-1980).
Where [3] appears, read: Species/Cell Type: Salmonella typhimurium (one or more of the five standard strains: TA98, TA100, TA1535, TA1537, and TA1538), Assay Type: Histidine reverse gene mutation, Ames assay, Assay Code: SAL+*, Activation: With metabolic activation, Evaluation Type: Evaluation A (Pre-1980).
Where [4] appears, read: Species/Cell Type: Bacillus subtilis (H17 vs M45), Assay Type: Rec-assay, spot test, DNA effects (bacterial DNA repair), Assay Code: REW+, Evaluation Type: Evaluation A (Pre-1980).
The mark [5] stands for this setting: Species/Cell Type: Human lymphocytes, Assay Type: Sister-chromatid exchange (SCE) in vitro, Assay Code: SCL+, Evaluation Type: Evaluation B (Post-1980).
The mark [6] stands for this setting: Species/Cell Type: Human, Assay Type: Sister-chromatid exchange (SCE) in vitro, Assay Code: SC1+, Evaluation Type: Evaluation B (Post-1980).
[7] abbreviates: Species/Cell Type: Human lymphocytes, Assay Type: Sister-chromatid exchange (SCE) in vitro, Assay Code: SCL+D, Dose Response: With dose response, Evaluation Type: Evaluation B (Post-1980).
Setting [8] is: Species/Cell Type: Human, Assay Type: Sister-chromatid exchange (SCE) in vitro, Assay Code: SC1+D, Dose Response: With dose response, Evaluation Type: Evaluation B (Post-1980).
Where [9] appears, read: Species/Cell Type: Salmonella typhimurium (one or more of the five standard strains: TA98, TA100, TA1535, TA1537, and TA1538), Assay Type: Histidine reverse gene mutation, Ames assay, Assay Code: SALT, Evaluation Type: Evaluation A (Pre-1980).

Activity calls are given as the source filed them. The rule behind the calls is not given here.

As for `CCCCNC(=O)N(CCCC)c1nc(-c2ccccc2)cs1`, the mutagenic call (Species/Cell Type: Salmonella typhimurium, Assay Type: Forward and reverse gene mutation, host-mediated assay, Assay Code: HMA+, Evaluation Type: Evaluation A (Pre-1980)) is “active; positive”.
In the case of `O=C(O)c1ccccc1N=Nc1ccc(N(CCCl)CCCl)cc1`, the mutagenic call under setting [1] was “active; positive”.
Still for that read-out and setting: to `CN(C)N=Nc1c(F)cc(F)cc1F` belongs “active; positive”.
As for `OC(c1ccccc1)C(c1ccccc1)c1ccccc1` (centres undefined), the mutagenic call (Species/Cell Type: Escherichia coli polA (W3119 vs P3478), Assay Type: Rec-assay, DNA effects (bacterial DNA repair), Assay Code: RE1T, Evaluation Type: Evaluation A (Pre-1980)) was “no conclusion”.
As for `[O]=[Cd]`, the call (Species/Cell Type: Nonhuman, Assay Code: CCG+, Evaluation Type: Evaluation A (Pre-1980)) is “active; positive”.
With `CS(=O)(=O)OCC(O)C(O)COS(C)(=O)=O` (centres undefined), the mutagenic call runs as follows: (Species/Cell Type: Allium cepa, Assay Type: Chromosome aberrations, Assay Code: ALCT, Evaluation Type: Evaluation A (Pre-1980)) “no conclusion”; (Species/Cell Type: Arabidopsis species, Assay Type: Gene mutation, Assay Code: ARM+, Evaluation Type: Evaluation A (Pre-1980)) “active; positive”; (Species/Cell Type: Vicia faba, Assay Type: Chromosome aberrations, Assay Code: VIC+D, Dose Response: With dose response, Evaluation Type: Evaluation A (Pre-1980)) “active; positive”.
On to `Cc1cc(/C=C/c2ccc3cc(N(C)C)ccc3[n+]2C)c(C)n1-c1ccccc1`, for which the mutagenic call under setting [2] was “active; positive” and the mutagenic call under setting [3] was “active; positive”.
As to `S=C1SSC2=NCCN12`, the mutagenic call runs as follows: under setting [4], “active; positive”; under setting [5], “active; positive”; under setting [6], “active; positive”.
As to `[Cl][Hg][Cl]`, the mutagenic call by setting is: under setting [4], “active; positive”; under setting [7], “active; positive”; under setting [8], “active; positive”; (Species/Cell Type: Neurospora crassa, Assay Type: Aneuploidy, chromosome aberrations, Assay Code: NEN-, Evaluation Type: Evaluation A (Pre-1980)) “inactive; negative”; under setting [2], “active; positive”; (Species/Cell Type: Nonhuman, Assay Type: Sister-chromatid exchange (SCE) in vitro, Assay Code: SC2-, Evaluation Type: Evaluation B (Post-1980)) “inactive; negative”. The mutagenic call (Species/Cell Type: Syrian hamster embryo (SA7/SHE) cells, Assay Type: Cell transformation, viral enhanced, Assay Code: CT7+, Evaluation Type: Evaluation A (Pre-1980)) is “active; positive”.
In the case of `CCC=O`, the mutagenic call reads like this: under setting [5], “active; positive”; under setting [6], “active; positive”.
Take `CC1(C)N=C(N)N=C(N)N1OCCCOc1cc(Cl)c(Cl)cc1Cl`: the mutagenic call under setting [9] is on record as “no conclusion”.
Regarding `O=C(OCC1CCN2CCC(OC(=O)c3ccc([N+](=O)[O-])cc3)C12)c1ccc([N+](=O)[O-])cc1` (centres undefined), the mutagenic call (Species/Cell Type: Allium cepa, Assay Type: Chromosome aberrations, Assay Code: ALC-, Evaluation Type: Evaluation A (Pre-1980)) was “inactive; negative”.
Regarding `Cc1ccc2cc3ccc4ccccc4c3cc2c1`, the mutagenic call is, setting by setting: under setting [2], “active; positive”; under setting [3], “active; positive”; (Species/Cell Type: Syrian hamster embryo (SHE) cells, Assay Type: Cell transformation, clonal assay, Assay Code: CTC+, Evaluation Type: Evaluation A (Pre-1980)) “active; positive”.
In the case of `CC[C@]1(O)CC2CN(CCc3c([nH]c4ccccc34)[C@@](C(=O)OC)(c3cc4c(cc3OC)N(C=O)[C@H]3[C@@](O)(C(=O)OC)[C@H](OC(C)=O)[C@]5(CC)C=CCN6CC[C@]43[C@@H]65)C2)C1` (some centres undefined), the mutagenic call (Species/Cell Type: Human lymphocytes, Assay Type: Sister-chromatid exchange (SCE) in vitro, Assay Code: SCL+, Evaluation Type: Evaluation A (Pre-1980)) was “active; positive”; the mutagenic call under setting [5] was “active; positive”; the mutagenic call (Species/Cell Type: Human lymphocytes, Assay Type: Sister-chromatid exchange (SCE) in vitro, Assay Code: SCLT, Evaluation Type: Evaluation B (Post-1980)) was “no conclusion”; the mutagenic call under setting [6] is “active; positive”; the mutagenic call (Species/Cell Type: Human, Assay Type: Sister-chromatid exchange (SCE) in vitro, Assay Code: SC1T, Evaluation Type: Evaluation B (Post-1980)) is given as “no conclusion”; the mutagenic call (Species/Cell Type: Mammalian polychromatic erythrocytes, Assay Type: Micronucleus test, chromosome aberrations, Assay Code: MNT+, Evaluation Type: Evaluation A (Pre-1980)) was “active; positive”. Moreover, the mutagenic call is, setting by setting: (Species/Cell Type: Mouse (C3H/10T1/2) cells, Assay Type: Cell transformation, Assay Code: CTH-, Evaluation Type: Evaluation A (Pre-1980)) “inactive; negative”; under setting [2], “active; positive”; (Species/Cell Type: Nonhuman, Assay Type: Sister-chromatid exchange (SCE) in vivo, Assay Code: SC3T, Evaluation Type: Evaluation B (Post-1980)) “no conclusion”.
On to `CC1CC2=C(CCC2=O)c2ccc3ccccc3c21` (centres undefined), for which, under setting [9], the mutagenic call is on record as “no conclusion”.
With `O=P1(N(CCCl)CCCl)NC(OO)CCO1` (centres undefined), the mutagenic call is “active; positive” under setting [7] and “active; positive” under setting [8].
As to `CC(=O)N(O)c1ccc2c(ccc3ccccc32)c1`, under “Species/Cell Type: Human diploid fibroblasts, Assay Type: Unscheduled DNA synthesis (UDS) in vitro, DNA effects, Assay Code: UDH+, Evaluation Type: Evaluation A (Pre-1980)”, the mutagenic call was “active; positive”. In addition, where the note is “Species/Cell Type: Nonhuman, Assay Code: CCG+L, Evaluation Type: Evaluation A (Pre-1980)”, the call was “active; positive”.
In the case of `CC(C)=CC1C(C(=O)O)C1(C)C` (centres undefined), the mutagenic call runs as follows: (Species/Cell Type: Human diploid fibroblasts, Assay Type: Unscheduled DNA synthesis (UDS) in vitro, DNA effects, Assay Code: UDH-, Evaluation Type: Evaluation A (Pre-1980)) “inactive; negative”; (Species/Cell Type: Saccharomyces cerevisiae, Assay Type: Mitotic recombination or gene conversion, Assay Code: YEH-, Evaluation Type: Evaluation A (Pre-1980)) “inactive; negative”.
On to `CCOP(=S)(OCC)SC1OCCOC1SP(=S)(OCC)OCC` (centres undefined), for which the call (Species/Cell Type: Nonhuman, Assay Code: CCG-, Evaluation Type: Evaluation A (Pre-1980)) is “inactive; negative”.
On to `CCN(Cc1ccc(CN(CC)C(=O)C(Cl)Cl)cc1)C(=O)C(Cl)Cl`, for which the mutagenic call (Species/Cell Type: Human, Sex: Male, Assay Type: Sperm morphology, Assay Code: SPH+, Evaluation Type: Evaluation A (Pre-1980)) was “active; positive”.
Turning to `O=[N+]([O-])c1ccc(-c2ncn[nH]2)o1`, the mutagenic call (Species/Cell Type: Escherichia coli WP2, Assay Type: Tryptophan reverse gene mutation, Assay Code: WP2-, Evaluation Type: Evaluation A (Pre-1980)) was “inactive; negative” and the mutagenic call (Species/Cell Type: Escherichia coli WP2 UVRA, Assay Type: Tryptophan reverse gene mutation, Assay Code: WPU+, Evaluation Type: Evaluation A (Pre-1980)) is “active; positive”.
Regarding `c1ccc2c(c1)ncn2CN1CCCCC1`, the mutagenic call (Species/Cell Type: Arabidopsis species, Assay Type: Gene mutation, Assay Code: ARM-, Evaluation Type: Evaluation A (Pre-1980)) is “inactive; negative”.
Take `O[C@@H]1[C@@H](O)[C@@H](O)c2c(cc3ccc4cccc5ccc2c3c45)[C@H]1O`: the mutagenic call (Species/Cell Type: Chinese hamster lung (V79) cells, Assay Type: Forward gene mutation at the HPRT or ouabain locus, Assay Code: V79-*, Activation: With metabolic activation, Evaluation Type: Evaluation A (Pre-1980)) was “inactive; negative”.

Source of the values: PubChem BioAssay AID1259408 (Genetic Toxicology Data Bank (GENE-TOX), 2018).
